Data as given in patent US11891640B1, “Crop protection in algae by exogenous terpene expression” (priority 2021, dated 2024).

Test system: Brachionus plicatilis (rotifers)
Test: Cultivation assay of N. oceanica in the presence of rotifers (culture stability against predation)
Type: in vivo
Conditions: rotifer concentrations between 10-50/mL
Text: FIGS. 3A-3B show culture stability in the presence of predation by rotifers. Provided are graphs showing (A) a culture including wild type Nannochloropsis oceanica (N. oceanica) exposed to increasing Brachionus plicatilis (rotifers) concentrations and (B) a transformed culture including N. oceanica strain 24N having a […]-322581 (Hypoxylon sp. CI-4A, sesquiterpene synthase) gene. Cultivation assays of N. oceanica in the presence of rotifers, which are common algae grazers and culture-crash inducing agents, indicate up to 50% increased survival of the sesquiterpene producing cultures over controls, indicating potential for algae crop-protection applications. Additional details follow. FIGS. 3A-3B show culture stability against predation.

## C=C(C)[C@@H]1CC=C2CCC[C@@H](C)[C@]2(C)C1 [aristolochene]
  predation resistance: significantly increased predation resistance
